Columns and labels:
[1] = Solubility and chemical stability of 1α,24-(OH)2 --V.D3; assay type: physicochemical; settings: non-polar solvent
[2] = system: excised skin (full skin) of Wistar rat; experiment: Skin permeability of active ingredient from cream composition; assay type: in vitro ADME; settings: 0.25 part by weight in bases of Examples 1, 4, 5 and Control Examples 14 to 21; Test Method 3
Description: For the skin, use was made of skin cut off from a dilapidated Wistar rat (full skin=including stratum corneum, epidermis, and dermis). For the reservoir solution, use was made of Hanks buffer (pH=7.4) plus 10% bovine fetal serum. […] (For the method of assay, see below.)

| Compound | Solubility (in words) [1] | Skin permeability of hydrocortisone acetate (in words) [2] |
| --- | --- | --- |
| C=C1C(=CC=C2CCCC3(C)C2CCC3C(C)CCC(O)C(C)C)CC(O)CC1O (stereo not drawn) [1α,24-(OH)2 --V.D3, 1α,24-dihydroxylcholecalciferol] | does not dissolve much at all in a non-polar solvent |  |
| CC(=O)OCC(=O)[C@@]1(O)CC[C@H]2[C@@H]3CCC4=CC(=O)CC[C@]4(C)[C@H]3[C@@H](O)C[C@@]21C [hydrocortisone acetate] |  | almost completely unrelated to the weight ratio of the stearyl alcohol and cetyl alcohol |

Source: patent publication US5612327A, “1α,24-(OH)2 -cholecalciferol emulsion composition and method for treating psoriasis” (priority 1993, dated 1997)
